According to publication doi:10.1101/2020.11.21.391136v1 (biorxiv, 2020):
Changes are numbered by the printed parent chain. Each block holds one compound with its values, some of them ahead of it.

Experiments:
A3R (Hs-A3R) [1] = target: T1, A3R (Hs-A3R) (Homo sapiens, UniProt P0DMS8, I253T); experiment: cell-based; parameters: species or system HEK293A
T1 sequence (P0DMS8 1-318 I253T): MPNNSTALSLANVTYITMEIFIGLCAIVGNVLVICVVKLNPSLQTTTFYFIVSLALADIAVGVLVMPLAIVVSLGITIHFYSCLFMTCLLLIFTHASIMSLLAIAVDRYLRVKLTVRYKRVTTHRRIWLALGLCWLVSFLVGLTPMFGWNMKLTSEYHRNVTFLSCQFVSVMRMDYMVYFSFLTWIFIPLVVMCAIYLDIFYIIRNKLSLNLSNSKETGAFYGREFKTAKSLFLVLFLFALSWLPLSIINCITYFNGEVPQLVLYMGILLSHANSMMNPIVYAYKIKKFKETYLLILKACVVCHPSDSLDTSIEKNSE

A3R (Hs-A3R) [2] = target: T2, A3R (Hs-A3R) (Homo sapiens, UniProt P0DMS8, L264M); experiment: cell-based; parameters: species or system HEK293A
T2 sequence (P0DMS8 1-318 L264M): T1 sequence (P0DMS8 1-318 I253T) with T253I, L264M

A3R (Hs-A3R) [3] = target: T3, A3R (Hs-A3R) (Homo sapiens, UniProt P0DMS8); experiment: cell-based; parameters: species or system HEK293A
T3 sequence (P0DMS8 1-318): T1 sequence (P0DMS8 1-318 I253T) with T253I

A3R (Hs-A3R) L264T [4] = target: T4, A3R (Hs-A3R) L264T (Homo sapiens, UniProt P0DMS8, L264T); experiment: cell-based; parameters: species or system HEK293A
T4 sequence (P0DMS8 1-318 L264T): T1 sequence (P0DMS8 1-318 I253T) with T253I, L264T

A3R (Hs-A3R) [5] = target: T5, A3R (Hs-A3R) (Homo sapiens, UniProt P0DMS8, V169E); experiment: cell-based; parameters: species or system HEK293A
T5 sequence (P0DMS8 1-318 V169E): T1 sequence (P0DMS8 1-318 I253T) with V169E, T253I

A2BR [6] = target: T6, A2BR (Homo sapiens, UniProt P29275); experiment: cell-based; parameters: species or system HEK293A
T6 sequence (P29275 1-332): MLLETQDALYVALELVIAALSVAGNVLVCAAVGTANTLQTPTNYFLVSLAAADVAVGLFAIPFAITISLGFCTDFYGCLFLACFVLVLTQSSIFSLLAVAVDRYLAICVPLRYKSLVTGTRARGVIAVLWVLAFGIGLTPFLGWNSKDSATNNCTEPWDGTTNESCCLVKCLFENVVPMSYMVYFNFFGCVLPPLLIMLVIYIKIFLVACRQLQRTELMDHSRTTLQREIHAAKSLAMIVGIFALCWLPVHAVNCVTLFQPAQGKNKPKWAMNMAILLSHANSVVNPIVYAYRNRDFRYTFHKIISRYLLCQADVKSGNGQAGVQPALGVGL

A1R [7] = target: T7, A1R (Homo sapiens, UniProt P30542); experiment: TGF-alpha shedding assay, HEK293A; format: cell-based
T7 sequence (P30542 1-326): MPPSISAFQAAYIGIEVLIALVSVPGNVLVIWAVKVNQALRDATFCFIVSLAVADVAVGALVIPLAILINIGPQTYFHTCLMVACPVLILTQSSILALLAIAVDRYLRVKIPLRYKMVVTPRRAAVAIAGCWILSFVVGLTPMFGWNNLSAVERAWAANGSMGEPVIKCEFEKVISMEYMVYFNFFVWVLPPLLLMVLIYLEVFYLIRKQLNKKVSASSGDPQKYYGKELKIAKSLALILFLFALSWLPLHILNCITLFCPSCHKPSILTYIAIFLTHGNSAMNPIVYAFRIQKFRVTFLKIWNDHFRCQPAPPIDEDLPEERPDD

Ss-A3R = target: T8, Ss-A3R (Sus scrofa, UniProt F1SBN8); experiment: TGF-alpha shedding assay, HEK293A; format: cell-based
T8 sequence (F1SBN8 1-318): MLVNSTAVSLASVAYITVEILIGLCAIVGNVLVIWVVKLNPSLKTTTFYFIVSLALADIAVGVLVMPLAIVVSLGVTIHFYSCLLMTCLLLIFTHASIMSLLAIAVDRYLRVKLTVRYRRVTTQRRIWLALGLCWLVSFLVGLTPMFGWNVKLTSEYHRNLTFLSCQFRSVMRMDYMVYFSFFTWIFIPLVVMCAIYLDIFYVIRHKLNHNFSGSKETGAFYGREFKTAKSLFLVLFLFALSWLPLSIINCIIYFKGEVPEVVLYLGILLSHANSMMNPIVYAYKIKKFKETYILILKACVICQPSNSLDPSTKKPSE

A2AR [8] = target: T9, A2AR (Homo sapiens, UniProt P29274); experiment: TGF-alpha shedding assay, HEK293A; format: cell-based
T9 sequence (P29274 whole entry): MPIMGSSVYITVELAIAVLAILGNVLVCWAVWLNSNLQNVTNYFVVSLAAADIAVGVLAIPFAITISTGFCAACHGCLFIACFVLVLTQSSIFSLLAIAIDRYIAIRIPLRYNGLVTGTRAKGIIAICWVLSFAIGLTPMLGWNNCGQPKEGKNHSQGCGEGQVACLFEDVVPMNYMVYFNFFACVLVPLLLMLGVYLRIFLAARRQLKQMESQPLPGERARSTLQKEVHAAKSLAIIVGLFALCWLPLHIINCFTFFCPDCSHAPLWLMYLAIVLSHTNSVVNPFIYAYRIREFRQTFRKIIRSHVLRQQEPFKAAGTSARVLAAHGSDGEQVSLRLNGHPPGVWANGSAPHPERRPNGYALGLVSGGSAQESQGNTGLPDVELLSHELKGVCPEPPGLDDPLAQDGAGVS

A2BR [9] = target: T6, A2BR; experiment: TGF-alpha shedding assay, HEK293A; format: cell-based
A3R (Hs-A3R) L264T [10] = target: T4, A3R (Hs-A3R) L264T; experiment: cell-based; parameters: species or system HEK293A; remark: listed apart in the source
A1R T270L [11] = target: T10, A1R T270L (Homo sapiens, UniProt P30542, T270L); experiment: cell-based; parameters: species or system HEK293A
T10 sequence (P30542 1-326 T270L): T7 sequence (P30542 1-326) with T270L

A1R T270L [12] = target: T10, A1R T270L; experiment: cell-based; parameters: species or system HEK293A; conditions: HEK293-A, read-out: Emax (%)
A1R [13] = target: T7, A1R; parameters: species or system HEK293A; conditions: % AP-TGFα release, not normalised to a reference agonist
A1R [14] = target: T11, A1R (Homo sapiens, UniProt P30542, E172V); experiment: cell-based; parameters: species or system HEK293A; conditions: HEK293-A, read-out: Emax (%)
T11 sequence (P30542 1-326 E172V): T7 sequence (P30542 1-326) with E172V

A2AR [15] = target: A2AR (Homo sapiens, UniProt P29274, T256I); experiment: cell-based; parameters: species or system HEK293A; conditions: HEK293-A, read-out: Emax (%)
Chain of A2AR (Homo sapiens, UniProt P29274, T256I) (P29274 whole entry T256I): as the sequence (P29274 whole entry) above, with T256I counted along it

A2AR [16] = target: A2AR (Homo sapiens, UniProt P29274, E169V); parameters: species or system HEK293A; conditions: % AP-TGFα release, not normalised to a reference agonist
Chain of A2AR (Homo sapiens, UniProt P29274, E169V) (P29274 whole entry E169V): as the sequence (P29274 whole entry) above, with E169V counted along it

A1R [17] = target: T12, A1R (Homo sapiens, UniProt P30542, T257I); experiment: cell-based; parameters: species or system HEK293A; conditions: HEK293-A, read-out: Emax (%)
T12 sequence (P30542 1-326 T257I): T7 sequence (P30542 1-326) with T257I

A2AR [18] = target: T9, A2AR; experiment: cell-based; parameters: species or system HEK293A; conditions: HEK293-A, read-out: Emax (%)
A2AR [19] = target: A2AR (Homo sapiens, UniProt P29274, M270L); experiment: cell-based; parameters: species or system HEK293A; conditions: HEK293-A, read-out: Emax (%)
Chain of A2AR (Homo sapiens, UniProt P29274, M270L) (P29274 whole entry M270L): as the sequence (P29274 whole entry) above, with M270L counted along it

[20] = % AP-TGFα release, not normalised to a reference agonist, agonist

Emax (%) (A3R (Hs-A3R) [1]; [20]): 37 ± 2.0%
Emax (%) (A3R (Hs-A3R) [2]; [20]): 39 ± 2.6%
Emax (%) (A3R (Hs-A3R) [3]; [20]): 39 ± 0.82%
Emax (%) (A3R (Hs-A3R) L264T [4]; [20]): 22 ± 0.84%
Emax (%) (A3R (Hs-A3R) [5]; [20]): 14 ± 4.1%
Emax (%) (A2BR [6]; [20]): 57 ± 1.2%
Structure (SMILES): Nc1ncnc2c1ncn2[C@@H]1O[C@H](CO)[C@@H](O)[C@H]1O [adenosine]

EC50 (A1R [7]): 840 ± 130 nM
EC50 (Ss-A3R): 39 ± 3.1 nM
EC50 (A2AR [8]): 13000 ± 1100 nM
EC50 (A2BR [9]): 51000 ± 6400 nM
EC50 (A3R (Hs-A3R) L264T [10]): 6.4 ± 0.44 nM
EC50 (A1R T270L [11]): 540 ± 62 nM
Emax (A3R (Hs-A3R) [1]; HEK293-A, read-out: Emax (%)): 41 ± 2.2%
Emax (A3R (Hs-A3R) [2]; HEK293-A, read-out: Emax (%)): 43 ± 1.7%
Emax (A1R T270L [12]): 15 ± 1.6%
Emax (A3R (Hs-A3R) [3]; HEK293-A, read-out: Emax (%)): 43 ± 2.1%
Emax (%) (A1R [13]): 17 ± 2.2%
Emax (A1R [14]): 32 ± 1.9%
Emax (A3R (Hs-A3R) L264T [4]; HEK293-A, read-out: Emax (%)): 27 ± 2.2%
Emax (A2AR [15]): 30 ± 1.7%
Emax (%) (A2AR [16]): 29 ± 2.0%
Emax (A1R [17]): 42 ± 1.2%
Emax (A3R (Hs-A3R) [5]; HEK293-A, read-out: Emax (%)): 22 ± 2%
Emax (A2BR [6]; HEK293-A, read-out: Emax (%)): 76 ± 4.7%
Emax (A2AR [18]): 17 ± 0.57%
Emax (A2AR [19]): 3.5 ± 0.68%
Structure (SMILES): CNc1ncnc2c1ncn2[C@@H]1O[C@H](CO)[C@@H](O)[C@H]1O [m^6A]
